Values after ≈ are worked out from the molar mass of the structure shown. Values joined by “and” are separate entries in the source; they are usually repeats but may differ in a detail not shown here. Equal entries are not always repeated. Where two headings read alike, the source gives them in different places.
Legend:
[1] = Salicylic acid content in sample solutions kept at benchtop; type: physicochemical; conditions: for Average conc. salicylic acid: no pH adjustment; for Average conc. salicylic acid / Average conc. of salicylic acid: benchtop
Procedure: In addition, storage stability screenings were conducted. The solutions prepared as previously described, were kept on a benchtop at 24+/−3° C. and 70% relative humidity. For media with no pH adjustment, the degradation of ASA is higher in ethanol as compared to the other media in the test (see Table 8). For media with pH adjustment, degradation of ASA in acidified TBA, acidified water and acidified water with mannitol were almost similar. Degradation in acidified TBA was higher than in acidified ethanol at 24+/−3° C. and 70% relative humidity (see Table 9).
It was observed that acidified ethanol has the highest solubility and stability. […] The finding of up to 72 hours stability is critical, because it allows manipulations during the manufacturing process and a manufacturing run of up to 3 days.

[2] = Solution pH before and after addition of ASA to medium; type: physicochemical
Procedure: (§1) Prior to spray drying experiments, the solution pH of different solvents and the saturation solubility of ASA in different solvents was screened. The acidified mediums were prepared as follows:
(§2) 8.5 ml of hydrochloric acid (about 35% v/v) was transferred into 900 ml of water and diluted to 1000 ml with water. 10.0 ml of this solution was diluted to 1000 ml with water. The pH of the solution was noted.
(§3) 8.5 ml of hydrochloric acid (about 35% v/v) was transferred into 900 mL 96% ethanol and diluted to 1000 ml with water. 10.0 ml of this solution was diluted to 1000 ml with 96% ethanol. The pH of the solution was noted.
(§4) 8.5 ml of hydrochloric acid (about 35% v/v) was transferred into 900 mL Tertiary butyl alcohol and diluted to 1000 ml with Tertiary butyl alcohol. 10.0 ml of this solution was diluted to 1000 ml with 96% Tertiary butyl alcohol. The pH of the solution was noted.
(§5) 8.5 ml of hydrochloric acid (about 35% v/v) was transferred into 900 ml water and diluted to 1000 ml with water. 10.0 ml of this solution was diluted to 1000 ml with water. […] The pH of the solution was noted.
(§6) ASA has more solubility in non-aqueous media compared to aqueous media and ASA dissolves better in ethanol compared to tertiary butyl alcohol however it also has higher salicylic acid content (Tables 6 and 7). Once it is acidified the salicylic acid levels are lowered.

[3] = cited from earlier work
[4] = Saturated solubility of ASA after 1 hour shaking in a medium selection; type: physicochemical; conditions: for solubility thermodynamic at 1 h: thermodynamic from solid, read-out: Individual concentration at saturation (Cs), Aspirin (A)
Procedure: as §1, §2, §3, §4, §5, §6

[5] = Assay and purity by HPLC on non-irradiated and gamma-irradiated ASA powder; type: physicochemical; conditions: after gamma irradiation
Procedure: The packaged ASA was end-sterilized by 25 or 55 kGy using a Cobalt60 irradiation source. Inside the installation, samples are placed on a turn table which is turned a quarter to expose each sample from each side at equal amounts of irradiation. For each 1 kGy, the sample is irradiated for 10 min.
After gamma-irradiation, the samples were again analysed for sterility according to Ph. Eur. 2.6.1., which is harmonized with USP 71. Potential degradation was monitored by determining assay and purity by HPLC.
Salicylic acid levels were less than 0.05%.

CC(=O)Oc1ccccc1C(=O)O [ASA, Acetyl salicylic acid]
Average conc. salicylic acid ([1]; 60 g/L mannitol, 0 hr): 0.262 mg/mL
Average conc. salicylic acid ([1]; 60 g/L mannitol, 72 Hrs): 0.897 mg/mL
Average conc. salicylic acid ([1]; 60 g/L mannitol, 6 hrs): 0.285 mg/mL
Average conc. salicylic acid ([1]; 60 g/L mannitol, 12 hrs): 0.312 mg/mL
Average conc. salicylic acid ([1]; 60 g/L mannitol, 24 hrs): 0.574 mg/mL
Average conc. salicylic acid ([1]; 60 g/L mannitol, 48 hrs): 0.863 mg/mL
Average conc. of salicylic acid ([1]; Acidified 60 g/L mannitol, 0 hr): 0.153 mg/mL
Average conc. of salicylic acid ([1]; Acidified 60 g/L mannitol, 72 Hrs): 0.403 mg/mL
Average conc. of salicylic acid ([1]; Acidified 60 g/L mannitol, 6 hrs): 0.167 mg/mL
Average conc. of salicylic acid ([1]; Acidified 60 g/L mannitol, 12 hrs): 0.218 mg/mL
Average conc. of salicylic acid ([1]; Acidified 60 g/L mannitol, 24 hrs): 0.260 mg/mL
Average conc. of salicylic acid ([1]; Acidified 60 g/L mannitol, 48 hrs): 0.322 mg/mL
Average conc. of salicylic acid ([1]; Acidified Tert-butyl alcohol, 0 hr): 0.237 mg/mL
Average conc. of salicylic acid ([1]; Acidified Tert-butyl alcohol, 72 Hrs): 8.176 mg/mL
Average conc. of salicylic acid ([1]; Acidified Tert-butyl alcohol, 6 hrs): 0.388 mg/mL
Average conc. of salicylic acid ([1]; Acidified Tert-butyl alcohol, 12 hrs): 1.737 mg/mL
Average conc. of salicylic acid ([1]; Acidified Tert-butyl alcohol, 24 hrs): 3.135 mg/mL
Average conc. of salicylic acid ([1]; Acidified Tert-butyl alcohol, 48 hrs): 5.403 mg/mL
Average conc. of salicylic acid ([1]; Acidified ethanol 96%, 0 hr): 0.901 mg/mL
Average conc. of salicylic acid ([1]; Acidified ethanol 96%, 72 Hrs): 1.627 mg/mL
Average conc. of salicylic acid ([1]; Acidified ethanol 96%, 6 hrs): 0.947 mg/mL
Average conc. of salicylic acid ([1]; Acidified ethanol 96%, 12 hrs): 1.130 mg/mL
Average conc. of salicylic acid ([1]; Acidified ethanol 96%, 24 hrs): 1.280 mg/mL
Average conc. of salicylic acid ([1]; Acidified ethanol 96%, 48 hrs): 1.430 mg/mL
Average conc. of salicylic acid ([1]; Acidified water, 0 hr): 0.162 mg/mL
Average conc. of salicylic acid ([1]; Acidified water, 72 Hrs): 0.402 mg/mL
Average conc. of salicylic acid ([1]; Acidified water, 6 hrs): 0.168 mg/mL
Average conc. of salicylic acid ([1]; Acidified water, 12 hrs): 0.217 mg/mL
Average conc. of salicylic acid ([1]; Acidified water, 24 hrs): 0.269 mg/mL
Average conc. of salicylic acid ([1]; Acidified water, 48 hrs): 0.327 mg/mL
Average conc. salicylic acid ([1]; Ethanol 96%, 0 hr): 1.092 mg/mL
Average conc. salicylic acid ([1]; Ethanol 96%, 72 Hrs): 24.768 mg/mL
Average conc. salicylic acid ([1]; Ethanol 96%, 6 hrs): 1.961 mg/mL
Average conc. salicylic acid ([1]; Ethanol 96%, 12 hrs): 3.315 mg/mL
Average conc. salicylic acid ([1]; Ethanol 96%, 24 hrs): 18.682 mg/mL
Average conc. salicylic acid ([1]; Ethanol 96%, 48 hrs): 21.522 mg/mL
Average conc. salicylic acid ([1]; Tert-butyl alcohol, 0 hr): 0.543 mg/mL
Average conc. salicylic acid ([1]; Tert-butyl alcohol, 72 Hrs): 18.135 mg/mL
Average conc. salicylic acid ([1]; Tert-butyl alcohol, 6 hrs): 0.988 mg/mL
Average conc. salicylic acid ([1]; Tert-butyl alcohol, 12 hrs): 1.669 mg/mL
Average conc. salicylic acid ([1]; Tert-butyl alcohol, 24 hrs): 9.261 mg/mL
Average conc. salicylic acid ([1]; Tert-butyl alcohol, 48 hrs): 16.238 mg/mL
Average conc. salicylic acid ([1]; Water, 0 hr): 0.269 mg/mL
Average conc. salicylic acid ([1]; Water, 72 Hrs): 0.904 mg/mL
Average conc. salicylic acid ([1]; Water, 6 hrs): 0.289 mg/mL
Average conc. salicylic acid ([1]; Water, 12 hrs): 0.312 mg/mL
Average conc. salicylic acid ([1]; Water, 24 hrs): 0.574 mg/mL
Average conc. salicylic acid ([1]; Water, 48 hrs): 0.854 mg/mL
% of salicylic acid ([1]; acidified ethanol, up to 72 hours (Limit Not more than 5%)): less than 2%
pH 48 hours after addition of ASA ([2]; 96% Ethanol, no prior pH adjustment (pH 7.06 before)): 3.09
pH 48 hours after addition of ASA ([2]; Acidified 96% ethanol (pH 2.30 before)): 2.24
pH 48 hours after addition of ASA ([2]; Acidified tert-butyl alcohol (pH 2.01 before)): 1.93
pH 48 hours after addition of ASA ([2]; Acidified water (0.001N HCl) (pH 2.47 before)): 2.37
pH 48 hours after addition of ASA ([2]; Acidified water + 60 g/L mannitol (pH 2.50 before)): 2.36
pH 48 hours after addition of ASA ([2]; Milli-Q Water, no prior pH adjustment (pH 5.41 before)): 2.62
pH 48 hours after addition of ASA ([2]; Tert-butyl alcohol, no prior pH adjustment (pH 4.89 before)): 3.40
pH 48 hours after addition of ASA ([2]; Water + 60 g/L mannitol, no prior pH adjustment (pH 6.03 before)): 2.61
solubility ([3]; above pH 5.5): above 100 mg/ml
solubility in water ([3]; water): about 0.3%
solubility thermodynamic at 1 h ([4]; 60 g/L mannitol solution, saline or isotonic, 60 g/L mannitol, without pH adjustment): 3090 µg/mL (≈ 17.2 mM)
Individual concentration at saturation (Cs), Aspirin (A) ([4]; 60 g/L mannitol, without pH adjustment): 2.868 mg/mL and 2.484 mg/mL
Cs (mean) ([4]; Acidified 60 g/L mannitol): 1.787 mg/mL
Cs (mean) ([4]; Acidified ethanol): 142.678 mg/mL
Individual concentration at saturation (Cs), Aspirin (A) ([4]; Acidified ethanol): 143.526 mg/mL and 142.299 mg/mL and 141.593 mg/mL
Individual concentration at saturation (Cs), Aspirin (A) ([4]; Acidified tert-butyl alcohol): 48.73 mg/mL and 48.156 mg/mL and 48.453 mg/mL
Individual concentration at saturation (Cs), Aspirin (A) ([4]; Acidified water): 1.924 mg/mL and 1.912 mg/mL
Individual concentration at saturation (Cs), Aspirin (A) ([4]; Ethanol, without pH adjustment): 158.430 mg/mL and 163.027 mg/mL and 160.432 mg/mL
Individual concentration at saturation (Cs), Aspirin (A) ([4]; Tert-butyl alcohol, without pH adjustment): 22.768 mg/mL and 23.150 mg/mL and 22.889 mg/mL
Individual concentration at saturation (Cs), Aspirin (A) ([4]; Water, without pH adjustment): 3.429 mg/mL and 3.423 mg/mL
solubility thermodynamic at 1 h ([4]; acidified 60 g/L mannitol solution, saline or isotonic, Acidified 60 g/L mannitol): 1780 µg/mL (≈ 9.85 mM)
solubility thermodynamic at 1 h ([4]; acidified water, aqueous buffer, Acidified water): 1890 µg/mL (≈ 10.5 mM)
solubility thermodynamic at 1 h ([4]; water, Water, without pH adjustment): 3090 µg/mL (≈ 17.2 mM)
Salicylic acid levels [5]: less than 0.05%
impurities identified [5]: no impurities were identified

From patent publication US12357644B2, “Acetyl salicylic acid composition for intravenous administration, its storage, production and use” (HYLORIS DEVELOPMENTS SA, priority 2022, dated 2025)
